Source: ChEMBL document CHEMBL1201862, “PubChem BioAssay data set” (2004)
Values belong to the molecule of their own block, whether it stands above or below them. Calls of active or inactive are those of the source.

Tests used:
[1] = molecular target: T1, Neuropeptide Y receptor type 1 (Homo sapiens, UniProt P25929); experiment: Fluorescence-based counterscreen for potentiators or agonists of NPY-Y2: cell-based high-throughput dose response assay for potentiators or agonists of NPY-Y1.; assay type: functional
T1 sequence (P25929 whole entry): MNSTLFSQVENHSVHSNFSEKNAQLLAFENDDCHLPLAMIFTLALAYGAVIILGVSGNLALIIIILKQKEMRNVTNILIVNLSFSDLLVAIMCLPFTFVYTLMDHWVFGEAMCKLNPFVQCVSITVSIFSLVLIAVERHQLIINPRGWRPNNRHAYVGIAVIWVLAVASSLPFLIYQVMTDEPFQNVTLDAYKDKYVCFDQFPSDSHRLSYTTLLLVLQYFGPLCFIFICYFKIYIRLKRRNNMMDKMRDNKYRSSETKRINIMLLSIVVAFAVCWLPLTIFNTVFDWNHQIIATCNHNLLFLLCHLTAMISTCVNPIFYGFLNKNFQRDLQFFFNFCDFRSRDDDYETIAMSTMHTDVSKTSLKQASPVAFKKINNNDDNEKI

HEK293 = experiment: Fluorescence-based counterscreen for potentiators or agonists of NPY-Y2: cell-based high-throughput dose response assay to identify inhibitors of cyclic nucleotide gated ion channel (CNGC) activity. In this assay, the parental HEK293 cell line transfected with a cyclic-nucleotide gated ion channel (CNGC)-based cAMP sensor is used to measure inhibition of isoproterenol-induced CNGC activity by test compound.; assay type: functional; conditions: Homo sapiens;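 further: stimulus is 1 µM isoproterenol at EC100 plus PDE inhibitor Ro 20-1724 at 25 µM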
[2] = molecular target: T2, Neuropeptide Y receptor type 2 (Homo sapiens, UniProt P49146); experiment: Fluorescence-based cell-based high-throughput dose response assay for agonists of NPY-Y2. [Related pubchem assays: 1703 (Screening assay (CNGC inhibitors).), 1359 (Screening assay (NPY-Y2 potentiators or agonists).), 1304 (Screening assay (NPY-Y1 potentiators or agonists).), 1710 (Screening assay (NPY-Y2 agonists).), 1791 (Summary AID.)]; assay type: functional
T2 sequence (P49146 whole entry): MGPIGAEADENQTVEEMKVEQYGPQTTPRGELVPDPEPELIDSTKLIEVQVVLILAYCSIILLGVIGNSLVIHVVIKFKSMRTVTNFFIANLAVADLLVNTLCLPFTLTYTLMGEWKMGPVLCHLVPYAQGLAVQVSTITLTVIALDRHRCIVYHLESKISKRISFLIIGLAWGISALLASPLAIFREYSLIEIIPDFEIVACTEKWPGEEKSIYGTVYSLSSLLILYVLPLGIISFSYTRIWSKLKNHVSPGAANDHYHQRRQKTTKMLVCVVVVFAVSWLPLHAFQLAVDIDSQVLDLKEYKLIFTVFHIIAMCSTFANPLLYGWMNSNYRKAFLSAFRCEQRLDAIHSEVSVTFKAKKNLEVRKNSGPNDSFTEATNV

[3] = molecular target: T2, Neuropeptide Y receptor type 2; experiment: Fluorescence-based cell-based high-throughput dose response assay for potentiators or agonists of NPY-Y2. [Related pubchem assays: 1539 (Screening assay (NPY-Y2 potentiators or agonists).), 1703 (Screening assay (CNGC inhibitors).), 1359 (Screening assay (NPY-Y2 potentiators or agonists).), 1304 (Screening assay (NPY-Y1 potentiators or agonists).) …; assay type: functional
[4] = molecular target: T1, Neuropeptide Y receptor type 1; experiment: Fluorescence-based counterscreen for agonists of NPY-Y2: cell-based high-throughput dose response assay for agonists of NPY-Y1.; assay type: functional
Staphylococcus aureus = experiment: Inhibitors of Bacterial Quorum Sensing Structure Activity Relationship (SAR) Analysis: Dose Response Assay. [Related pubchem assays: 700, 527 ]; assay type: functional, organism-based
Vero [5] = experiment: Vero cell viability after compound exposure – synthesized analogs, set II, cytotoxicity control for West Nile virus antiviral project, SAR follow-up (AID 2402); assay type: functional; conditions: Chlorocebus sabaeus
Vero [6] = experiment: host cell viability loss, Vero E6 – synthesized analogs, cytotoxicity control for West Nile virus antiviral project, SAR follow-up (AID 2244); assay type: functional; conditions: Chlorocebus sabaeus
[7] = molecular target: 5-hydroxytryptamine receptor 1E (Homo sapiens, UniProt P28566); experiment: Counterscreen assay for S1P3 antagonists: Dose response cell-based high throughput screening assay to identify antagonists of the 5-Hydroxytryptamine Receptor Subtype 1E (5HT1E). [Related pubchem assays: 1429, 485 ]; assay type: functional
Chain of 5-hydroxytryptamine receptor 1E (P28566 whole entry): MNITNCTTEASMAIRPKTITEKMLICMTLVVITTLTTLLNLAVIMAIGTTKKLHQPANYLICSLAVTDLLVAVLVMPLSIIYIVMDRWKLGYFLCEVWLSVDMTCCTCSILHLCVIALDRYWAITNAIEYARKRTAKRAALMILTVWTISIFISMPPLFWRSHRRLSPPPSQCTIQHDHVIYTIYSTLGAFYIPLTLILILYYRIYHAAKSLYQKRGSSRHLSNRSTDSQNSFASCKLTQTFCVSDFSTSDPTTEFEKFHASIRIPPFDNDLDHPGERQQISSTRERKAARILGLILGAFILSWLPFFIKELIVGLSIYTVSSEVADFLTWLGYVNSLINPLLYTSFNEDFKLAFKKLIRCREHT

[8] = molecular target: Sphingosine 1-phosphate receptor 3 (Homo sapiens, UniProt Q99500); experiment: Dose response cell-based high throughput screening assay for antagonists of the Sphingosine 1-Phosphate Receptor 3 (S1P3). [Related pubchem assays: 1429, 485 ]; assay type: functional
Chain of Sphingosine 1-phosphate receptor 3 (Q99500 whole entry): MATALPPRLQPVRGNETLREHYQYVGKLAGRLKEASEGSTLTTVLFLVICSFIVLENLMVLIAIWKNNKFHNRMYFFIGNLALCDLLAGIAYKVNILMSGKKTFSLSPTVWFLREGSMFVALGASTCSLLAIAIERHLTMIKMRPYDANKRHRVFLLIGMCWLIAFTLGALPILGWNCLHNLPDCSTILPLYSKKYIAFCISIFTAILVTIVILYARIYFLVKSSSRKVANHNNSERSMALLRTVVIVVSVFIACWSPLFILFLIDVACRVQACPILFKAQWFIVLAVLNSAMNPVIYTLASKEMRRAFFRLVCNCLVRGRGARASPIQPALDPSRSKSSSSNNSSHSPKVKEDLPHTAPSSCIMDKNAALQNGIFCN

[9] = molecular target: Signal transducer and activator of transcription 3 (Homo sapiens, UniProt P40763); experiment: STAT3 activation with BCL3 mRNA and toxicity – cell-based, […], BCL3 qPCR, cytotoxicity, late-stage follow-up, panel member STAT3 Activation (AID 2049)
Chain of Signal transducer and activator of transcription 3 (P40763 whole entry): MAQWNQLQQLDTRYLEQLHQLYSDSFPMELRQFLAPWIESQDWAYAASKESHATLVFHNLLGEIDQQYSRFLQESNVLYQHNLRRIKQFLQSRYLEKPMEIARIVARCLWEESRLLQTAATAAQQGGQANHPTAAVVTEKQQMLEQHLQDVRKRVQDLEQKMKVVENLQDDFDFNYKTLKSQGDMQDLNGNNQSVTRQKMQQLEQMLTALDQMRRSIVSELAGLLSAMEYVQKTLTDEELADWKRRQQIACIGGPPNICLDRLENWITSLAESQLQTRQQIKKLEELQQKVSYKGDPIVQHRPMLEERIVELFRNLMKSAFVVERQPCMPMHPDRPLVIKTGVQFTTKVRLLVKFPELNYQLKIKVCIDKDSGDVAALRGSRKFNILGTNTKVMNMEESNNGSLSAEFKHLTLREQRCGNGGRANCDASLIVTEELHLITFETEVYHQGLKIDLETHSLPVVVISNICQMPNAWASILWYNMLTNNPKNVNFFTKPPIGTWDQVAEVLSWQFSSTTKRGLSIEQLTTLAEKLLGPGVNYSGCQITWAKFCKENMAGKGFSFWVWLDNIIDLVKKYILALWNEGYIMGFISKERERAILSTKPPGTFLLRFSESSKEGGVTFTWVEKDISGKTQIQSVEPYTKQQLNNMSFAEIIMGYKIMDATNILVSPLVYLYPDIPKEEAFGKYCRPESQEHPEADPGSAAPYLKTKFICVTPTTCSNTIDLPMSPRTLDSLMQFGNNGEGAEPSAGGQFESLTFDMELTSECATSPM

Wee1-like protein kinase = Wee1-like protein kinase (Homo sapiens, UniProt P30291); experiment: HeLa cell cycle G2/M accumulation – FACS, mechanism study for Wee1 degradation inhibitor project, late-stage follow-up, panel member Wee1 Degradation (AID 2088)
Chain of Wee1-like protein kinase (P30291 whole entry): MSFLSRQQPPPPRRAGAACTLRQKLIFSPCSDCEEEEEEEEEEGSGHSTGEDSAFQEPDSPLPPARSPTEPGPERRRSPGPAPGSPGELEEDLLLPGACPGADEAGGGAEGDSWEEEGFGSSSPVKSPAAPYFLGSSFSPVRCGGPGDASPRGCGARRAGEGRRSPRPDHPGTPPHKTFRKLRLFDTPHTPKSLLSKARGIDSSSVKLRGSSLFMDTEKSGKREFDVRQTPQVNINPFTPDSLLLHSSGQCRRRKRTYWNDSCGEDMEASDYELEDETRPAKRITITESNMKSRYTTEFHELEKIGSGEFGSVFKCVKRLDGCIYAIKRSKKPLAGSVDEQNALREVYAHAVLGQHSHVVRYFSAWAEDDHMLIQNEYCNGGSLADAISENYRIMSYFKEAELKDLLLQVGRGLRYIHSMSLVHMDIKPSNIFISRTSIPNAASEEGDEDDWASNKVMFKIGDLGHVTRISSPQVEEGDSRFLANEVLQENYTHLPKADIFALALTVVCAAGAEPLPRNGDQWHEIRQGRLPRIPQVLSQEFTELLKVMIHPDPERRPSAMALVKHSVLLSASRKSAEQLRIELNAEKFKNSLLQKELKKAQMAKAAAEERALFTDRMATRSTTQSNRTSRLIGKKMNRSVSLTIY

[10] = molecular target: G2/mitotic-specific cyclin-B1 (Homo sapiens, UniProt P14635); experiment: HeLa cell cycle G2/M accumulation – FACS, mechanism study for Wee1 degradation inhibitor project, late-stage follow-up, panel member Cyclin B Degradation (AID 2088)
Chain of G2/mitotic-specific cyclin-B1 (P14635 whole entry): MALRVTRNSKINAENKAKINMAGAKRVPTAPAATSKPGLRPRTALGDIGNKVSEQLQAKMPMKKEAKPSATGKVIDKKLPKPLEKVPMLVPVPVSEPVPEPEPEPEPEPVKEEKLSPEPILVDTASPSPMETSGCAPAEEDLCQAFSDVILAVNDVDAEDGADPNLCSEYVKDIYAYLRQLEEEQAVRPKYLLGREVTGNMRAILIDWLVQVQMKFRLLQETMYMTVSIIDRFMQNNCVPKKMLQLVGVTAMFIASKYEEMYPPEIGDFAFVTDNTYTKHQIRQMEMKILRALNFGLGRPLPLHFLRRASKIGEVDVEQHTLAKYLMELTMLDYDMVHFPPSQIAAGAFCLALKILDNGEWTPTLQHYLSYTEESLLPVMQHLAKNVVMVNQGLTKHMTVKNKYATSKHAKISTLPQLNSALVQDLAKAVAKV

[11] = molecular target: T3, Mannose-6-phosphate isomerase (Homo sapiens, UniProt P34949); experiment: MPI enzyme activity inhibition – biochemical, fluorescence intensity, coupled assay, primary screen (AID 1209)
T3 sequence (P34949 whole entry): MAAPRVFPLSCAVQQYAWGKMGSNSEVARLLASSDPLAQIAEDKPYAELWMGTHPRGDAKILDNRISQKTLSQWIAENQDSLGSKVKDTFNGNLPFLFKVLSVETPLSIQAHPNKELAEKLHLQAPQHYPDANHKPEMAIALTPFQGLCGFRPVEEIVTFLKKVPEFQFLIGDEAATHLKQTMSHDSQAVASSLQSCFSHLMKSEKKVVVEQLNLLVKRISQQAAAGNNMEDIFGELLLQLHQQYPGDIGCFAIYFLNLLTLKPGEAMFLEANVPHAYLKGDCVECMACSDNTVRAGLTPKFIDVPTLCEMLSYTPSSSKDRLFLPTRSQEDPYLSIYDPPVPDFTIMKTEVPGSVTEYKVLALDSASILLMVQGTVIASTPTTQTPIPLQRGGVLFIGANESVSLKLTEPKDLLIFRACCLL

[12] = antiviral protection against BTV-induced cell death – arbovirus, BSR cells, confirmation (AID 1250); assay type: functional;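 further: protection from viral cytopathic effect measured as cell viability by ATP luminescence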
[13] = molecular target: Induced myeloid leukemia cell differentiation protein Mcl-1 (Homo sapiens, UniProt Q07820); assay type: functional
Chain of Induced myeloid leukemia cell differentiation protein Mcl-1 (Q07820 whole entry): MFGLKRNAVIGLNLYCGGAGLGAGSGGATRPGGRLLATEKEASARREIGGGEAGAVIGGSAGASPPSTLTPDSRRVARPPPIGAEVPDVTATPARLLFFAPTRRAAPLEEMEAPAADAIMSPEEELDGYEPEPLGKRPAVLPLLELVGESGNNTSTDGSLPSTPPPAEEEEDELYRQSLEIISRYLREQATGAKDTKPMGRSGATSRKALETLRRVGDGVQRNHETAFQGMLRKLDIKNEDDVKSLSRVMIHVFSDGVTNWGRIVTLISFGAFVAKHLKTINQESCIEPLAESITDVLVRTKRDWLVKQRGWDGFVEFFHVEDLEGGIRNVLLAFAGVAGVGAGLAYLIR

[14] = molecular target: T3, Mannose-6-phosphate isomerase; experiment: MPI inhibition at elevated mannose 6-phosphate – biochemical, fluorescence intensity, high mannose 6-phosphate, primary screen (AID 1220)
Cytochrome P450 3A4 = Cytochrome P450 3A4 (Homo sapiens, UniProt P08684); conditions: Potency;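 further: confirmatory qHTS run detecting inhibitors and substrates of CYP3A4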
Chain of Cytochrome P450 3A4 (P08684 whole entry): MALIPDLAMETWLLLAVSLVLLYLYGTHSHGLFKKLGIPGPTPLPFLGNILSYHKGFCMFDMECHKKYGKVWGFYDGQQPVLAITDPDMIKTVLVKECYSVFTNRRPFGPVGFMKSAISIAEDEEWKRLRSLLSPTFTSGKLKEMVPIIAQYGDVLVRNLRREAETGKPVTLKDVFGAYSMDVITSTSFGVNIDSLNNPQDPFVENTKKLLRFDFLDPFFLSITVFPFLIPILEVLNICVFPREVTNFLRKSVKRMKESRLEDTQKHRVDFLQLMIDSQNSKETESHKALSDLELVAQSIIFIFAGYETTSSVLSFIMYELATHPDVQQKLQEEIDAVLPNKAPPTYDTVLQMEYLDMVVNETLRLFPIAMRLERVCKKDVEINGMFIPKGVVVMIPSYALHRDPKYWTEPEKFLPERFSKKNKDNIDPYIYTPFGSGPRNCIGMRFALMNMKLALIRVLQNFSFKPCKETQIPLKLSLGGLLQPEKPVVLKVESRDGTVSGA

[15] = Luminescence Cell-Based Dose Confirmation HTS to Identify Inhibitors of Polyadenylation.; assay type: functional

Compound: Cc1cccc2c(N)c3c(nc12)CCCC3.O=C(O)c1cc([N+](=O)[O-])ccc1Cl
EC50 [1]: 5.53 µM (active)
EC50 (HEK293): 8.74 µM (active)
EC50 [2]: 3.65 µM (active)
EC50 [3]: 5.24 µM (active)
EC50 [4]: 3.41 µM (active)

Compound: CC(C)c1ccc(NC(=O)C(c2ccc3c(c2)OCO3)N2CCCCC2)cc1 (centres undefined)
IC50 (Staphylococcus aureus): 254 nM (active)

Compound: O=c1c2cc(Cl)cc(Cl)c2nc2n1CCC2
CC50 (Vero [5]): > 100 µM (active)
CC50 (Vero [6]): > 40 µM (active)

IC50 [7]: > 50 µM (not active)
IC50 [8]: > 50 µM (not active)
Compound: CSc1ccccc1NC(=O)C1CC(c2ccccc2O)=NO1 (centres undefined)

Compound: COc1ccc(OC)c(NC(=O)c2cc(CN3CCCC3)on2)c1
EC50 [9]: > 55.7 µM (inactive)

EC50 (Wee1-like protein kinase): > 49.7 µM (inactive)
EC50 [10]: > 49.7 µM (inactive)
Compound: Cc1cccc(CC(=O)Nc2cc(C)nn2-c2nc(C)cc(=O)[nH]2)c1

IC50 [11]: > 50 µM (not active)
IC50 [13]: > 54 µM (not active)
IC50 [14]: > 50 µM (not active)
Compound: Cc1cc(/N=C/c2c(O)ccc3cc(Br)ccc23)no1
IC50 [12]: 31.8 µM (active)

AC50 (Cytochrome P450 3A4): 12.6 µM (inconclusive)
Compound: C[C@@H]1CCC2[C@@H](C)[C@@H](O)O[C@@H]3O[C@@]4(C)CC[C@@H]1[C@@]23OO4 (some centres undefined)

Compound: CC(C)=CCOc1c2ccoc2cc2oc(=O)ccc12 [ISOIMPERATORIN]
EC50 [15]: > 120 µM (not active)
